Data taken from patent publication US20250122541A1, “ENZYMATIC AND CHEMICAL CATALYSIS FOR PRODUCTION FROM GLUCOSE OF THE PHARMACEUTICAL PRECURSOR, S-3-HYDROXY- Y -BUTYROLACTONE HBL” (The United States, as represented by the Secretary of …, priority 2023, published 2025).
Where “and” joins values, the source holds several entries; their conditions need not be identical. Equal entries are not always repeated.

Key:
[1] = Partition coefficient of HBL extraction from aqueous solution into organic solvent (GC/FID); format: physicochemical
Source text: One potential application of HBL, which may have high value, is as a pharmaceutical precursor, which depends on its enantiomeric purity. To identify the chirality of the HBL produced by the above process, gas chromatography (GC) with flame ionization detection (FID) was applied using a MilliporeSigma® Supelco® ß-Dex 255 capillary GC column containing a chiral stationary phase of 2,3-diO-acetyl-6-0-TBDMS-ß-cyclodextrin. (MilliporeSigma and Supelco are registered trademarks of Merck KGaA of Darmstadt, Germany) This column successfully separated the enantiomers of HBL, although the retention times depended on the solvent in which the HBL was dissolved. Based on the reaction network from glucose to HBL, the chirality should be preserved at the C-5 position (FIG. 1). The reaction product solution was extracted with ethyl acetate, and the organic phase analyzed by GC/FID. […] The partition coefficient of HBL extraction into ethyl acetate was 0.1±0.02, and quantification of the HBL in the ethyl acetate coupled with this partition coefficient leads to an overall yield of HBL from glucose of 90%, which is limited by equilibrium, vide supra. HBL can also be extracted into THE, with a partition coefficient of 1.3±0.5, and propylene carbonate, with a partition coefficient of 0.5±0.1.

[2] = Half-life of BPP followed spectroscopically at 265 nm; format: physicochemical; settings: phosphate buffer (enzyme-free ultrafiltrate of the reaction), pH 6, 0.1 M phosphate, first-order decay, after removal of D1*D2D3 by ultrafiltration, read-out: half-life (t1/2)
Description: The synthesis and t1/2 of BPP was determined spectroscopically at 265 nm. The synthesis of BPP with D1*D2D3 sonicate and 10 mM glucosone in a 500 μL reaction was followed until the absorbance reached ˜1.4 (about 14 minutes). The reaction was then passed through a 3,000 MWCO Nanosep centrifugal filter (PALL Life Sciences) by centrifuging for 4 minutes at 14,000×g and 200 μL of filtrate followed at A265 every 4 s. The decay of A265 was normalized to the highest and lowest measured values, with the highest A265 set to 1 and the lowest to 0. To determine whether the t1/2 was 0th, 1st or 2nd order, the natural log of the data was plotted against time. After determining that the decay followed 1st-order decay, t1/2 was calculated using the Solver add-in for Microsoft Excel, minimizing the sum of squared differences between the measured and modeled data calculated using Equation 1.

Row | half-life [2] [min] | Structure (SMILES) | partition coefficient of HBL extraction into THF ([1]; THF (printed THE) / aqueous solution) | partition coefficient of HBL extraction into ethyl acetate ([1]; ethyl acetate / aqueous reaction product solution) | partition coefficient of HBL extraction into propylene carbonate ([1]; propylene carbonate / aqueous solution)
1 |  | O=C1C[C@H](O)CO1 [HBL, (S)-3-hydroxy-γ-butyrolactone] | 1.3 and 1.3±0.5 | 0.1 and 0.1±0.02 | 0.5±0.1
2 | 3.7 | O=C1C(O)=C[C@@H](CO)OC1O (stereo partly shown) [BPP] |  |  | 
